Like-named read-outs stand apart in the source and are kept apart here. Residues, ends and D or L forms follow the SMILES beside them. No end group written: not given here.
Key:
[1] = system: peripheral human lymphocytes; type: cell-based; conditions: for E-rosette number (%): cells blocked with α-amanitin = 0%, normal level without any addition = 100%, at optimum concentration; for Optimum concentr.: concentration giving the stated E-rosette number; for Relative number of E-rosettes (%): after inhibition with α-amanitin
Description: (§1) The immunological test methods used were the E-rosette test according to Wara, Ammann et al. (N.Y. Acad. Sci. 249 (1975) 308 and N. Engl. J. Med. 292 (1975) 70) and the method of mixed lymphocyte culture, both methods involving additional inhibition of cellular RNS polymerase by alpha-amanitin. The E-rosette test is based on the fact that the percentage of E-rosette forming cells in peripheral human blood is a measure of the content of fully mature T-cells, which form with sheep's red blood cells characteristic aggregates which can be counted under the microscope.
For the performance of the E-rosette test, peripheral human lymphocytes are isolated by a gradient centrifugation. Their RNS polymerase is blocked by alpha-amanitin. […] This value is taken as 100% in a relative numerical scale, and after the Alpha-amanitin blockage it is taken to be 0%; see Table XII.

[2] = system: human peripheral lymphocytes; type: cell-based; conditions: for stimulation (+) / inhibition (-) of mixed lymphocyte culture: 1 μg fragment per ml, not blocked, culture without addition = 0%; for Stimulation (%) of allogenic mixed culture: 1 microgram thymosin α1 per ml
Description: as §1
The test in mixed lymophocyte cultures is based on the fact that T-cells are made to proliferate by stimulation with allogenic antigens. For the performance of the test, the lymphocytes of donor A ("responder") are incubated with those of donor B ("stimulator") for 4 to 5 days. Then ^3 H-thymidin is added and the rate of proliferation is measured on the basis of the increasing radioactivity of the cell culture due to the installation of the radioactive material. Since both populations A and B might be made to proliferate, resulting in an unclear effect, population B is blocked with mitomycin C in all metabolical activities. This test is routinely used before organ transplants to determine the immunological compatibility of donor and receiver tissues.

Row | Compound | E-rosette number (%) [1] [%] | Optimum concentr. [1] [μm] | stimulation (+) / inhibition (-) of mixed lymphocyte culture ([2]; cell pair AB) | stimulation (+) / inhibition (-) of mixed lymphocyte culture ([2]; cell pair CD) | stimulation (+) / inhibition (-) of mixed lymphocyte culture ([2]; cell pair DC) | other results
1 | C[C@H](NC(=O)[C@@H](N)CCC(=O)O)C(=O)N[C@@H](CCC(=O)O)C(=O)N[C@@H](CC(N)=O)C(=O)O [V] (H-EAEN-OH) | 42 | 113 | +223% | +45% | +37% | –
2 | Ac-SDAAVDTSSEIT [IX] | 40 | 4 | -74% | -63% | -77% | –
3 | KDAAVD [Ia] | 93 | 16 | -8% | -73% | -31% | stimulation (+) / inhibition (-) of mixed lymphocyte culture ([2]; cell pair BA): -15%
4 | KEVVEEAEN [VI] | 16 | 10 | +153% | +57% | – | –
5 | TKDLKEKKEVVEEAEN [VII] | 41 | 6 | – | – | – | –
6 | TSSEIT [II] | 29 | 80 | – | -53% | +30% | stimulation (+) / inhibition (-) of mixed lymphocyte culture ([2]; cell pair BA): -18%
7 | thymosin α1 (SDAAVDTSSEITTKDLKEKKEVVEEAEN; ends and bridges not checked; UniProt P06454 2-29, looked up) [Thymosin (synthetic), parent substance, totally synthetic thymosin α1, 28 amino acids, analytically pure, reference compound] | 100 | 1.6 | – | – | – | Relative number of E-rosettes (%) ([1]; 0.25 μg per culture): 39%; Relative number of E-rosettes (%) ([1]; 0.50 μg per culture): 100%; Relative number of E-rosettes (%) ([1]; 1.00 μg per culture): 64%; Relative number of E-rosettes (%) ([1]; 2.50 μg per culture): 57%; Relative number of E-rosettes (%) ([1]; 5.00 μg per culture): 33%; Stimulation (%) of allogenic mixed culture ([2]; cell pair AB, culture inhibited with 1 microgram α-amanitin per ml): +86%; Stimulation (%) of allogenic mixed culture ([2]; cell pair AB, culture not inhibited, stimulator cells blocked with mitomycin): +20%; Stimulation (%) of allogenic mixed culture ([2]; cell pair AD, culture inhibited with 1 microgram α-amanitin per ml): +37%; Stimulation (%) of allogenic mixed culture ([2]; cell pair AD, culture not inhibited): +4%; Stimulation (%) of allogenic mixed culture ([2]; cell pair BA, culture inhibited with 1 microgram α-amanitin per ml): +47%; Stimulation (%) of allogenic mixed culture ([2]; cell pair BA, culture not inhibited): +27%; Stimulation (%) of allogenic mixed culture ([2]; cell pair BD, culture inhibited with 1 microgram α-amanitin per ml): +51%; Stimulation (%) of allogenic mixed culture ([2]; cell pair BD, culture not inhibited): +45%; Stimulation (%) of allogenic mixed culture ([2]; cell pair DA, culture inhibited with 1 microgram α-amanitin per ml): +0%; Stimulation (%) of allogenic mixed culture ([2]; cell pair DA, culture not inhibited): +44%; Stimulation (%) of allogenic mixed culture ([2]; cell pair DB, culture inhibited with 1 microgram α-amanitin per ml): +1550%; Stimulation (%) of allogenic mixed culture ([2]; cell pair DB, culture not inhibited): +27%

Reference: patent publication US4910296A, “Medicaments containing alpha 1 thymosin fragments and having an immunostimulant action, and fragments of alpha 1 thymosin” (priority 1980, dated 1990)
